In patent publication US20120308554A1, “VEGF-D/VEGFR2/3-MEDIATED REGULATION OF DENDRITES” (UNIVERSITAT HEIDELBERG, priority 2011, published 2012):

Columns and labels:
[1] = test system: VEGFD, VEGF, VEGFC and VEGFR3; assay: qRT-PCR analysis of shRNA knock-down of VEGF family members; type: cell-based, mice; conditions: hippocampal neurons infected with rAAV
Method: Total RNA was isolated at DIV10 to DIV13 from hippocampal primary neuron cultures or isolated brain tissues with Rneasy Mini Kit (Qiagen, Hilden, Germany) including an optional Dnase I treatment at room temperature for 15 min according to manufacturer's instructions (Qiagen). 1.2 μg of extracted RNA was reverse transcribed into first strand cDNA using High Capacity cDNA Reverse Transcription kit (Applied Biosystems, Foster City, Calif.). Quantitative reverse transcriptase PCR (qRT-PCR) was done on an ABI7300 thermal cycler using Universal qRT-PCR master mix with TaqMan Gene Expression Assays for the indicated genes (Applied Biosystems). The following TaqMan Gene Expression Assays were used in this study: Gusb (Mm00446953_m1), cFos (Mm00487425_m1), VEGFD (Mm00438965_m1), VEGFC (Mm01202432_m1), VEGF (Mm01281449_m1), VEGFR3 (Mm01292618_m1), beta-actin (Mm00607939_s1), beta-2 microglobulin (Mm00437762_m1), CBP (Mm01342435_m1), p38 MAPK alpha (Mm00442497_m1), p38 MAPK beta (Mm00440955_m1). Expression of target genes was normalized against the expression of Gusb as endogenous control gene. Data were derived from at least 5 independent experiments. For expression of shRNAs, an rAAV vector containing the U6 promoter for shRNA expression and a CaMKII promoter driving mCherry expression was used. Three different sequences were obtained from Open Biosystems ([…] 2 and […] 3), cloned and tested for silencing efficiency. […] As control, a scramble version of this sequence ([…] ID NO: 2) and the vector carrying only the mCherry ([…]) were used. Shp38alpha [NT] ID NO: 3), shp38beta [NT] ID NO: 4), […] ID NO: 5), […] ID NO: 6) and […] ID NO: 7; sequence obtained from Open Biosystems www.openbiosystems.com) were also cloned into the same vector. CBP expression level was knocked down using a pool of four short interfering RNAs (siRNAs) targeting mouse CBP (Accell siRNA SMARTpool; Thermo Scientific Dharmacon). The SMARTpool is a group of four siRNAs that have been screened to reduce a variety of potential off-target effects including the inclusion of miRNA (microRNA)-like seed motifs. Silencing of GAPDH was measured using Accell mouse GAPDH as a positive control, and as a negative control, a non-targeting Accell mouse siRNA pool was used. In addition, a fluorescently labeled non-targeting Accell mouse siRNA was also used to evaluate penetration efficiency in hippocampal neurons via immunocytochemistry. Briefly, 500 nM siRNAs were supplemented in the serum-free culturing medium at DIV8, and mRNA levels were analyzed at DIV13.

C57BL/6 mice [2] = assay: Morris water maze; type: in vivo
Method: (§1) rAAVs were delivered by stereotaxic injection into the right dorsal hippocampus of 2 months old male C57BL/6 mice. For the Golgi staining-based morphometric analysis, viral particles were unilaterally injected over a period of 20 min at the following coordinates relative to Bregma: anteroposterior, −2.1 mm; mediolateral, −1.4 mm; dorsoventral, −1.4 to −1.8 mm from the skull surface. For behavior experiments mice were injected bilaterally.
(§2) The behavioral experiments started three weeks after stereotaxic delivery of rAAVs. Mice were habituated to the experimental room and handled once a day for three consecutive days before testing started. Two different sets of mice were used for Morris water maze and contextual fear conditioning experiments. At the end of the experiments, virus infection was assessed.
Mice were first tested in the hidden-platform version and next in the visible-platform version of the water maze. The water maze consisted of a circular pool (120 cm diameter) filled with opaque water (water was made opaque with non-toxic white paint). The platform (10 cm diameter) was submerged 1 cm below the water level. On the first day of the hidden-platform version, mice were habituated to the water and the platform for two 60 seconds trials. In each habituation trial, mice were allowed to swim for 30 seconds and then placed on the platform for another 30 seconds. During the acquisition phase, mice were placed four times a day into a pool with a submerged platform located in a fixed position (approximately 5 minutes inter-trial interval) for four days. […] On the fifth day, mice were given a 60 second probe trial, for which the platform was not in the pool. This was followed by four more days of training. A second probe trial was given on the tenth day. In the visible-platform version, mice were trained to find the platform using a proximal visible cue (red ball placed 10 cm above the platform). […] The path of the mouse was recorded using a video tracking system (ANY-Maze, Stoelting, Ireland).

hippocampal neurons = assay: Morphometric analyses (total dendritic length, Sholl analysis, spine density) of cultured hippocampal neurons; type: cell-based, mice
Method: Hippocampal neurons from newborn C57BL/6 mice were cultured as known in the art. Experiments were done after a culturing period of 10 to 14 days in vitro (DIV). DNA transfection was done on DIV8 using Lipofectamine 2000 (Invitrogen, San Diego, Calif.). For the studies on dendrite morphology, neurons were analyzed 4-5 days after transfection.
For 3D Sholl Analysis, total dendritic length and spine morphology were calculated using Object-Image freeware software with a specific set of macros (written by Dr. E. Ruthazer, McGill University, Quebec). Briefly, a z-Stack acquisition was imported, calibrated in Object-Image and manually traced. Total dendritic length was then computed. For Sholl analysis, the shell interval was set at 5 μm. All analyses were performed blind. In all in vitro experiments, for each condition, a minimum of 12 neurons from three independent preparations was analyzed. For the Golgi staining quantifications of 20 neurons for each condition from 4 different injected animals per viral construct were traced and analyzed.
Hippocampal neurons were fixed with 4% paraformaldehyde at room temperature for 20 min. For immunostaining, primary and secondary antibodies were applied in GDB buffer (30 mM phosphate buffer [pH7.4] containing 0.2% gelatin, 0.5% Triton X-100, and 0.9 M NaCl). For the morphometric analyses, fluorescence images were acquired using a confocal laser-scanning microscope TCS SP2 (Leica, Mannheim, Germany) equipped with an inverted fluorescence microscope DM IRE2 (Leica) and Leica confocal scan software. All images were obtained with sequential acquisition setting at a resolution of 1024×1024 pixels. Each image was a z series projection of images taken at 1 μm intervals.

C57BL/6 mice [3] = assay: Contextual fear conditioning; type: in vivo; conditions: versus rAAV-shSCR
Method: as §1, §2
On the training day, mice were placed into the conditioning chamber (23×23×35 cm; TSE, Bad Homburg, Germany) and received a 2 second, 0.5 mA scrambled foot shock 148 seconds after placement into the chamber. Mice were removed from the chamber 30 seconds after the shock. During testing, mice received one 5 minute exposure to the same context in the absence of foot shock 24 hours after conditioning. Freezing, defined as absence of movement except for respiration, was scored continuously during training and testing sessions.

shVEGFD: shRNA targeting mouse VEGFD mRNA (GGGCTTCAGGAGCGAACAT; SEQ ID NO: 1), expressed from rAAV vector or plasmid with U6 promoter
mRNA levels of respective targets [1]: reduced mRNA levels of their respective targets | Swimming speed (C57BL/6 mice [2]; hidden-platform acquisition, versus rAAV-shSCR): not different between the two groups | time to find hidden platform (escape latency), effect of treatment (C57BL/6 mice [2]; hidden-platform version, versus rAAV-shSCR): no effect of treatment was observed | time spent in quadrants during probe trial (C57BL/6 mice [2]; probe trial, 60 sec): spent similar amounts of time in the different quadrants | total dendritic length and dendritic complexity (Sholl analysis) (hippocampal neurons; neurons expressing the construct versus control constructs): less complex dendritic arbor and a reduction in total dendritic length | spine density (number of spines/20 μm) (hippocampal neurons; transfected hippocampal neurons): 6.52±0.51 spines/20 μm | basal exploratory activity and reaction to shock during training (C57BL/6 mice [3]): not different between the two groups | freezing during the 24-hour test session (C57BL/6 mice [3]): significantly lower levels of freezing
